Measurements: US7399608B2, “Microbial detection and quantification” (Kimberly-Clark Worldwide, Inc., priority 2003, dated 2008)

Assays:
[1] = system: bacteria from aged chicken juice; test: Reichardt's dye indicator spray on surfaces contaminated with aged chicken; details: for false-positive test: chicken broth versus aged chicken juice: 160 mg in 10 ml isopropanol
E. coli [2] = test: De-colorization of Reichardt's dye-coated paper by bacteria solutions; parameters: species or system Escherichia coli; details: paper brush-coated with 80 mg/10 mL acetonitrile; 100 μL of 10^7 to 10^4 CFU/mL
Method: This experiment tested the ability of a surface coating of Reichardt's dye to respond to bacterial contamination. […] To this paper was added 100 μL aliquots of 10^7, 10^6, 10^5, and 10^4 CFU/mL E. coli or S. aureus solutions (8B). Water was used as a negative control. […] It was later determined that while both bacteria solutions were indeed at 10^7 CFU/mL concentrations, the actual concentration of the S. aureus solution was 7×10^7 CFU/mL compared to 1×10^7 CFU/mL for the E. coli solution.

gram-positive bacteria = test: Dye solution added to bacteria spot on SCOTT towel
Method: A new potential for the Reichardt's dye-based bacterial indicator was realized through testing of liquid dye with bacteria on a substrate rather than substrate-bound dye coming into contact with liquid bacteria (Example 5). This experiment focused on determining how the dye solution responds to known concentrations of bacteria residing on a surface. 100 μl of 10^8 CFU/ml gram-positive bacteria was placed on a SCOTT® towel (FIG. 9A). To this spot was added a drop of the Reichardt's dye dissolved in acetonitrile (160 mg in 10 ml acetonitrile) (9B).
For comparison, a spot of dye was dried onto the towel and the same amount of bacteria was added. […] Additional drops of the dye were added to the spot of bacteria (9C), and de-colorization continued until the fourth drop, at which point the purple color persisted (9D). Attempts to restore the dye color on the dye-coated SCOTT® towel by adding acetonitrile using a pipette were unsuccessful (9E).

E. coli [3] = test: Titration of substrate-bound microorganism with Reichardt's dye solution; parameters: species or system Escherichia coli; details: 160 mg in 10 ml acetonitrile, 10 μl aliquots; 100 μl of 10^7 CFU/ml on towel
[4] = system: vaginal fluid samples (lactobacillus, BV bacteria); test: Reichardt's dye-coated stickers with normal and BV-infected vaginal fluid
Method: Considering the high prevalence of vaginal infections of bacterial origin, an experiment was performed to determine the response of Reichardt's dye-coated stickers to healthy (low pH, no bacterial infection), a pH positive/Bacterial Vaginosis (BV) negative (no bacterial infection, but higher than normal pH), and pH positive/BV positive (higher than normal pH and known bacterial infection) vaginal fluid samples. […] A sticker of each concentration was tested with normal, BV positive/pH positive, and BV negative/pH positive vaginal fluid samples.

[5] = system: microbes on computer keyboard; test: Indicator spray on computer keyboard
Method: Reichardt's dye was dissolved in isopropanol (160 mg in 10 mL of isopropanol) and attached to an aerosol-based spray device. The keyboard was then sprayed with the indicator solution (10B).

bacteria solution = test: Lateral flow device; details: 5 weight percent dye in iso-propanol striped on nitrocellulose HF75
Method: Millipore nitrocellulose HF75 membrane (from Millipore Corporation of Billerica, Mass., USA) was laminated onto a plastic supporting card (from Millipore Corp.) having a length of approximately 30 centimeters. On both the detection zone and control zone, a solution of 5 weight percent Reichardt's dye in iso-propanol was hand striped. The membrane was dried in a laboratory oven for 1 hour at a temperature of 37.5° C. After the membrane card was taken from the oven, a cellulosic wicking pad (Cat# CFSP203000 from Millipore Corp.) was attached to one end of the membrane closer to the control zone. The other end of the card, used to attach the sample pad, was cut off. The card was then sliced into 4 mm strips to form half sticks.
Once the half sticks were prepared, a bacteria solution was applied to the end of the detection membrane. […] The control line color remained the same through out the test.

E. coli [6] = test: Cyclodextrin enhancement: coated towel with bacteria; parameters: species or system Escherichia coli; details: hydroxypropyl-beta-cyclodextrin coated towel
Method: A SCOTT® paper towel was first coated with hydroxypropyl-beta-cyclodextrin (from Cerestar International, Hammond, Ind., USA) in solution in water (1 gram in 20 ml) by dipping and air-drying at ambient temperature. When dry the coated paper towel was treated with a solution of Reichardt's dye in isopropanol (1 weight percent) and allowed to air-dry. The dried towel was a purple/blue in color. Here the cyclodextrin hinders the crystallization of the dye allowing a more vivid color of the dye to occur on the paper towel. This coated towel was used in a test with gram-negative bacteria (E. coli) and found to turn colorless in less than 5 seconds when an aliquot of 100 microliters of media containing 10,000 CFU/ml was applied to the towel. […] Thus by hindering the dye from crystallizing, the dye is believed to be present on the substrate as single molecules and therefore the sensitivity of the dye to bacteria levels increases. The inventors believe that by careful use of a coating (e.g. cyclodextrin) on the towel a mono-molecular coating of dye will occur on the surface of the substrate and maximum sensitivity will occur.

Bleach indicator test = assay type: physicochemical; details: mixture with TMB coated on SCOTT towel
Polio virus type 1 = details: virus diluted serially in media, 50-microliter aliquots, 3 minutes
Rhinovirus = test: Virus detection with Reichardt's dye
[7] = system: Herpes Simplex Virus 1 (HSV-1); test: Virus detection with Reichardt's dye-coated stickers; details: 50-microliter droplet, 3 minutes
[8] = system: bacteria in aged chicken juice; test: Dye solution dropped onto aged chicken juice on SCOTT paper towel (comparative examples); details: 100 mg suspended in 10 ml acetonitrile, dropped onto aged chicken juice on SCOTT paper towel

## [O-]c1c(-c2ccccc2)cc(-[n+]2c(-c3ccccc3)cc(-c3ccccc3)cc2-c2ccccc2)cc1-c1ccccc1 [Reichardt's dye, 2,6-diphenyl-4-(2,4,6-triphenylpyridinio)-phenolate]
[1]; 160 mg in 10 mL acetonitrile, sprayed on ceramic plate
  color change of indicator spray on area contacted by aged chicken: decolorized
[1]; 160 mg in 10 mL isopropanol, plastic doorknob marked with aged chicken juice
  color change of indicator spray on contaminated doorknob: de-colorization of the Reichardt's dye from blue to colorless
[1]; ceramic surface
  false-positive test: chicken broth versus aged chicken juice: only the side containing the aged chicken juice (and thus bacteria) was de-colorized
[1]; hot plate surface
  false-positive test: chicken broth versus aged chicken juice: only the side containing the aged chicken juice (and thus bacteria) was de-colorized
[1]; isopropanol spray, ceramic surface cleaned again with 60% ethanol antiseptic
  de-colorization after cleaning guided by the spray: no de-colorization took place
E. coli [2]
  de-colorization time: < 1 min
gram-positive bacteria; 160 mg in 10 ml acetonitrile dropped on 100 μl of 10^8 CFU/ml on SCOTT towel
  de-colorization of dye solution added to bacteria spot: immediately de-colorized
gram-positive bacteria; 160 mg in 10 ml acetonitrile, 100 μl of 10^8 CFU/ml
  drop at which the purple color persisted: fourth drop
gram-positive bacteria; dye spot dried on cellulosic towel, same amount of bacteria
  time to de-colorize when bacteria are placed onto dye dried on towel: several minutes
E. coli [3]
  Amount of Dye Required for Persistent Color: 80 µL
[4]
  de-colorization by BV negative/pH positive vaginal fluid: only faintly de-colorized
  de-colorization by BV positive/pH positive vaginal fluid: next sharpest de-colorization
  de-colorization by normal vaginal fluid: sharpest de-colorization
[5]
  de-colorization of spray on old computer keyboard: rapid de-colorization of the dye in certain areas
Bacteria solution
  color change in detection zone of lateral flow half stick: a color change was noted in the detection zone
E. coli [6]; 1 weight percent dye in isopropanol
  lowest bacteria concentration at which decolorization occurred: 500 CFU/ml
E. coli [6]; 1 weight percent dye in isopropanol, 100 microliters of 10,000 CFU/ml
  time to turn colorless: less than 5 seconds
E. coli [6]; 500 CFU/ml
  time to decolorize: ≤ 15 s
Bleach indicator test
  response of Reichardt's dye to dilute bleach: de-colorizing
Polio virus type 1
  lowest ten-fold dilution at which stickers changed color: 10^−6
Rhinovirus; 80 milligrams/10 milliliters acetonitrile with or without TWEEN 80, 100-microliter drop of undiluted virus on SCOTT towel
  dye added until the color persisted: approximately 9 drops
Rhinovirus; virus diluted serially in saline, 50-microliter aliquots, 3 minutes
  lowest ten-fold dilution at which stickers changed color: 10^−6
[7]
  de-colorization of sticker by undiluted virus: stronger de-colorization of the sticker than that observed for Rhinovirus and Polio virus
[8]
  color change on aged chicken juice (control): immediately decolorized
